Values after ≈ are worked out from the molar mass of the structure shown. Like-named read-outs stand apart in the source and are kept apart here.
What was measured:
Assay type in all cases: cell-based
[1] = test system: Escherichia coli ATCC 25922; experiment: Broth microdilution MIC, E. coli ATCC 25922 (MHIIB w & w/o 4 mM EDTA); conditions: for MIC: Escherichia coli, read-out: MIC E. coli ATCC 25922
Method in brief: (§1)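 Two-fold dilutions from 64 to 0.0625 μg/ml final, 1% DMSO, were inoculated at ~5.0×10^5 cfu/ml in the strain's test medium and kept 20 h at 37 °C in ambient atmosphere. Colonies were grown on MHA, with S. pneumoniae on blood agar under 5% CO2.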

[2] = test system: Staphylococcus aureus ATCC 29213 (MSSA); experiment: Broth microdilution MIC, S. aureus ATCC 29213 (MSSA); conditions: read-out: MIC S. aureus ATCC 29213 (MSSA)
Method in brief: as §1

[3] = test system: Bacillus subtilis ATCC 6633; experiment: Broth microdilution MIC, B. subtilis ATCC 6633; conditions: read-out: MIC B. subtilis ATCC 6633
Method in brief: as §1

[4] = test system: Staphylococcus aureus NRS384 (MRSA); experiment: Broth microdilution MIC, S. aureus NRS384 (MRSA); parameters: MIC NRS 384 (MRSA): unit not given here; conditions: for MIC: Staphylococcus aureus
Method in brief: as §1

[5] = test system: Enterococcus faecium ATCC 700221 (VRE); experiment: Broth microdilution MIC, E. faecium ATCC 700221 (VRE); parameters: MIC E. faecium ATCC 700221 (VRE): unit: ug/mL; conditions: for MIC: Enterococcus faecium
Method in brief: as §1

[6] = test system: Enterococcus faecalis ATCC 29212; experiment: Broth microdilution MIC, E. faecalis ATCC 29212; conditions: read-out: MIC E. faecalis ATCC 29212
Method in brief: as §1

[7] = test system: Streptococcus pneumoniae ATCC 49619; experiment: Broth microdilution MIC, S. pneumoniae ATCC 49619; conditions: read-out: MIC S. pneumoniae ATCC 49619
Method in brief: as §1

[8] = ATCC25922, without EDTA, broth microdilution, 37° C., 20 hours
[9] = with 4 mM EDTA, broth microdilution, 37° C., 20 hours
[10] = broth microdilution, 37° C., 20 hours
[11] = ATCC6633, broth microdilution, 37° C., 20 hours
[12] = broth microdilution, 37° C., 20 hours, read-out: MIC NRS 384 (MRSA)
[13] = broth microdilution, 37° C., 20 hours, read-out: MIC E. faecium ATCC 700221 (VRE)
[14] = ATCC29212, broth microdilution, 37° C., 20 hours
[15] = ATCC49619, broth microdilution, 37° C., 20 hours
[16] = S. aureus NRS 384, broth microdilution, 37° C., 20 hours, read-out: MIC NRS 384 (MRSA)
[17] = 20 h, read-out: MIC NRS 384 (MRSA)
[18] = 20 h, read-out: MIC E. faecium ATCC 700221 (VRE)
[19] = broth microdilution, MHIIB, 37° C., 20 hours, read-out: MIC against S. aureus NRS 384 (MRSA)
[20] = broth microdilution, MHIIB, 37° C., 20 hours, read-out: MIC against E. faecium ATCC 700221 (VRE)

| MIC [1, 8] | MIC E. coli ATCC 25922 + 4 mM EDTA [1, 9] | MIC [2, 10] | MIC [3, 11] | MIC [4, 12] | MIC [5, 13] | MIC [6, 14] | MIC [7, 15] | MIC [4, 16] | Compound | other results |
| --- | --- | --- | --- | --- | --- | --- | --- | --- | --- | --- |
| > 64 µg/mL | >64 µg/mL | 16 µg/mL (≈ 40 µM) | 4 µg/mL (≈ 9.99 µM) | 16 µg/mL (≈ 40 µM) | 4 µg/mL (≈ 9.99 µM) | 16 µg/mL (≈ 40 µM) | 8 µg/mL (≈ 20 µM) |  | [2H]C([2H])(Nc1nc2cnn(CCOCCO)c2c(=O)[nH]1)c1ccc(Cl)c(Cl)c1 [Compound 291, 5-[[dideuterio-(3,4-dichlorophenyl)methyl]amino]-1-[2-(2-hydroxyethoxy)ethyl]-6H-pyrazolo[4,3-d]pyrimidin-7-one] |  |
| > 64 µg/mL | >64 µg/mL | 16 µg/mL | 16 µg/mL | 16 µg/mL | 64 µg/mL | 64 µg/mL | 64 µg/mL |  | Cl.N=C(N)NCCn1ncc2nc(NCc3ccc(Cl)c(Cl)c3)[nH]c(=O)c21 [Compound 292, 1-(2-(5-((3,4-dichlorobenzyl)amino)-7-oxo-6,7-dihydro-1H-pyrazolo[4,3-d]pyrimidin-1-yl)ethyl)guanidine hydrochloride] |  |
| > 64 µg/mL | 32 µg/mL | 16 µg/mL | 8 µg/mL | 16 µg/mL | > 64 µg/mL | 64 µg/mL | 16 µg/mL |  | Cl.N=C(N)NCCOCCn1ncc2nc(NCc3ccc(Cl)c(Cl)c3)[nH]c(=O)c21 [Compound 293, 1-(2-(2-(5-((3,4-Dichlorobenzyl)amino)-7-oxo-6,7-dihydro-1H-pyrazolo[4,3-d]pyrimidin-1-yl)ethoxy)ethyl)guanidine hydrochloride] |  |
| > 64 µg/mL | 64 µg/mL | 32 µg/mL | 16 µg/mL | 32 µg/mL | 64 µg/mL | 64 µg/mL | 32 µg/mL |  | CNC(=N)NCCn1ncc2nc(NCc3ccc(Cl)c(Cl)c3)[nH]c(=O)c21.Cl [Compound 294, 1-(2-(5-((3,4-Dichlorobenzyl)amino)-7-oxo-6,7-dihydro-1H-pyrazolo[4,3-d]pyrimidin-1-yl)ethyl)-3-methylguanidine hydrochloride] |  |
| > 64 µg/mL | 64 µg/mL | > 64 µg/mL | 32 µg/mL | 64 µg/mL | 64 µg/mL | 64 µg/mL | 32 µg/mL |  | Cl.O=c1[nH]c(NCc2ccc(Cl)c(Cl)c2)nc2cnn(CCNC3=NCCN3)c12 [Compound 295, 5-((3,4-Dichlorobenzyl)amino)-1-(2-((4,5-dihydro-1H-imidazol-2-yl)amino)ethyl)-1H-pyrazolo[4,3-d]pyrimidin-7(6H)-one hydrochloride] |  |
| > 64 µg/mL | >64 µg/mL | > 64 µg/mL | 32 µg/mL |  | 64 µg/mL | > 64 µg/mL | 8 µg/mL | > 64 µg/mL | O=c1[nH]c(NCc2ccc(Cl)c(Cl)c2)nc2cnn(CCOCCOP(=O)(O)O)c12 [Compound 296, 2-(2-(5-((3,4-dichlorobenzyl)amino)-7-oxo-6,7-dihydro-1H-pyrazolo[4,3-d]pyrimidin-1-yl)ethoxy)ethyl dihydrogen phosphate] |  |
| > 64 µg/mL |  | > 64 µg/mL | 64 µg/mL |  | 16 µg/mL | > 64 µg/mL | 16 µg/mL | > 64 µg/mL | N.N.O=c1[nH]c(NCc2ccc(Cl)c(Cl)c2)nc2cnn(CCOCCOCOP(=O)(O)O)c12 [Compound 299, ammonium (2-(2-(5-((3,4-dichlorobenzyl)amino)-7-oxo-6,7-dihydro-1H-pyrazolo[4,3-d]pyrimidin-1-yl)ethoxy)ethoxy)methyl phosphate] | MIC E. coli ATCC 25922 + 4 mM EDTA ([1]; ATCC25922, 20 h): >64 µg/mL |
| > 64 µg/mL | >64 µg/mL | 4 µg/mL (≈ 8.73 µM) | 1 µg/mL (≈ 2.18 µM) |  |  | 8 µg/mL (≈ 17.5 µM) | 4 µg/mL (≈ 8.73 µM) |  | CSCOCCOCCn1ncc2nc(NCc3ccc(Cl)c(Cl)c3)[nH]c(=O)c21 [Compound 300, 5-[(3,4-dichlorophenyl)methylamino]-1-[2-[2-(methylsulfanylmethoxy)ethoxy]ethyl]-6H-pyrazolo[4,3-d]pyrimidin-7-one] | MIC NRS 384 (MRSA) ([4]; S. aureus NRS 384, broth microdilution, 37° C., 20 hours): 4/4; MIC E. faecium ATCC 700221 (VRE) [5, 10]: 2/4 |
| > 64 µg/mL | >64 µg/mL | 8 µg/mL (≈ 20.9 µM) | 8 µg/mL (≈ 20.9 µM) |  | 4 µg/mL (≈ 10.4 µM) | 8 µg/mL (≈ 20.9 µM) | 4 µg/mL (≈ 10.4 µM) | 4 µg/mL (≈ 10.4 µM) | O=c1[nH]c(NCc2ccc(F)c(F)c2)nc2c(F)nn(CCOCCO)c12 [Compound 301, 5-((3,4-difluorobenzyl)amino)-3-fluoro-1-(2-(2-hydroxyethoxy)ethyl)-1H-pyrazolo[4,3-d]pyrimidin-7(6H)-one] |  |
| > 64 µg/mL | >64 µg/mL | 2 µg/mL (≈ 4.8 µM) | 0.5 µg/mL (≈ 1.2 µM) |  | 1 µg/mL (≈ 2.4 µM) | 2 µg/mL (≈ 4.8 µM) | 2 µg/mL (≈ 4.8 µM) | 2 µg/mL (≈ 4.8 µM) | O=c1[nH]c(NCc2ccc(Cl)c(Cl)c2)nc2c(F)nn(CCOCCO)c12 [Compound 302, 5-[(3,4-Dichlorophenyl)methylamino]-3-fluoro-1-[2-(2-hydroxyethoxy)ethyl]-6H-pyrazolo[4,3-d]pyrimidin-7-one] |  |
| > 64 µg/mL | >64 µg/mL | 2 µg/mL (≈ 4.62 µM) | 0.5 µg/mL (≈ 1.16 µM) |  | 1 µg/mL (≈ 2.31 µM) | 2 µg/mL (≈ 4.62 µM) | 2 µg/mL (≈ 4.62 µM) | 2 µg/mL (≈ 4.62 µM) | O=c1[nH]c(NCc2ccc(Cl)c(Cl)c2)nc2c(Cl)nn(CCOCCO)c12 [Compound 303, 3-Chloro-5-[(3,4-dichlorophenyl)methylamino]-1-[2-(2-hydroxyethoxy)ethyl]-6H-pyrazolo[4,3-d]pyrimidin-7-one] |  |
| > 64 µg/mL | >64 µg/mL | 1 µg/mL (≈ 2.48 µM) | 0.5 µg/mL (≈ 1.24 µM) |  | 0.5 µg/mL (≈ 1.24 µM) | 2 µg/mL (≈ 4.97 µM) | 2 µg/mL (≈ 4.97 µM) | 1 µg/mL (≈ 2.48 µM) | COCCn1nc(Cl)c2nc(NCc3ccc(Cl)c(Cl)c3)[nH]c(=O)c21 [Compound 304, 3-Chloro-5-((3,4-dichlorobenzyl)amino)-1-(2-methoxyethyl)-1H-pyrazolo[4,3-d]pyrimidin-7(6H)-one] | MIC [4, 19]: ≤ 1 µg/mL; MIC [5, 20]: ≤ 1 µg/mL |
| > 64 µg/mL | >64 µg/mL | 1 µg/mL (≈ 2.59 µM) | 0.5 µg/mL (≈ 1.29 µM) |  | 1 µg/mL (≈ 2.59 µM) | 2 µg/mL (≈ 5.18 µM) | 4 µg/mL (≈ 10.4 µM) | 1 µg/mL (≈ 2.59 µM) | COCCn1nc(F)c2nc(NCc3ccc(Cl)c(Cl)c3)[nH]c(=O)c21 [Compound 305, 5-((3,4-Dichlorobenzyl)amino)-3-fluoro-1-(2-methoxyethyl)-1H-pyrazolo[4,3-d]pyrimidin-7(6H)-one] | MIC [4, 19]: ≤ 1 µg/mL; MIC [5, 20]: ≤ 1 µg/mL |
| > 64 µg/mL | >64 µg/mL | 2 µg/mL (≈ 4.89 µM) | 0.5 µg/mL (≈ 1.22 µM) |  | 1 µg/mL (≈ 2.44 µM) | 2 µg/mL (≈ 4.89 µM) | 4 µg/mL (≈ 9.77 µM) | 2 µg/mL (≈ 4.89 µM) | O=c1[nH]c(NCc2ccc(Cl)c(Cl)c2)nc2c(F)nn(Cc3cocn3)c12 [Compound 306, 5-((3,4-Dichlorobenzyl)amino)-3-fluoro-1-(oxazol-4-ylmethyl)-1H-pyrazolo[4,3-d]pyrimidin-7(6H)-one] |  |

| Compound | MIC [1, 8] | MIC E. coli ATCC 25922 + 4 mM EDTA [1, 9] | MIC [2, 10] | MIC [3, 11] | MIC [4, 12] | MIC [5, 13] | MIC [6, 14] | MIC [7, 15] | MIC [4, 16] | other results |
| --- | --- | --- | --- | --- | --- | --- | --- | --- | --- | --- |
| COP(=O)(OC)OCCOCCn1ncc2nc(NCc3ccc(Cl)c(Cl)c3)[nH]c(=O)c21 [Compound 297, 2-(2-(5-((3,4-dichlorobenzyl)amino)-7-oxo-6,7-dihydro-1H-pyrazolo[4,3-d]pyrimidin-1-yl)ethoxy)ethyl dimethyl phosphate] |  | >64 µg/mL |  |  |  |  |  |  |  | MIC ([1]; ATCC25922, 20 h): > 64 µg/mL; MIC ([2]; 20 h): 16 µg/mL; MIC ([3]; ATCC6633, 20 h): 8 µg/mL; MIC [4, 17]: 32 µg/mL; MIC [5, 18]: 8 µg/mL; MIC ([6]; ATCC29212, 20 h): 16 µg/mL; MIC ([7]; ATCC49619, 20 h): 8 µg/mL |
| COP(=O)(O)OCCOCCn1ncc2nc(NCc3ccc(Cl)c(Cl)c3)[nH]c(=O)c21 [Compound 298, 2-(2-(5-((3,4-Dichlorobenzyl)amino)-7-oxo-6,7-dihydro-1H-pyrazolo[4,3-d]pyrimidin-1-yl)ethoxy)ethyl methyl hydrogen phosphate] |  | >64 µg/mL |  |  |  |  |  |  |  | MIC ([1]; ATCC25922, 20 h): > 64 µg/mL; MIC ([2]; 20 h): > 64 µg/mL; MIC ([3]; ATCC6633, 20 h): > 64 µg/mL; MIC [4, 17]: > 64 µg/mL; MIC [5, 18]: > 64 µg/mL; MIC ([6]; ATCC29212, 20 h): > 64 µg/mL; MIC ([7]; ATCC49619, 20 h): > 64 µg/mL |
